From patent publication US10000535B2, “Template-fixed peptidomimetics” (POLYPHOR LTD., priority 2007, dated 2018)
Non-standard residues stand in square brackets, D forms with d. Residues, ends and D or L forms follow the SMILES beside them. Aze = O=C(O)[C@@H]1CCN1

Tests used:
Experiment in all cases: Selectivity calcium flux assay, chemokine receptor panel
Format in all cases: cell-based
Settings in all cases: at 10 μM
CCR3 = target: T1, CCR3 (Homo sapiens, UniProt P51677)
T1 sequence (P51677 1-355): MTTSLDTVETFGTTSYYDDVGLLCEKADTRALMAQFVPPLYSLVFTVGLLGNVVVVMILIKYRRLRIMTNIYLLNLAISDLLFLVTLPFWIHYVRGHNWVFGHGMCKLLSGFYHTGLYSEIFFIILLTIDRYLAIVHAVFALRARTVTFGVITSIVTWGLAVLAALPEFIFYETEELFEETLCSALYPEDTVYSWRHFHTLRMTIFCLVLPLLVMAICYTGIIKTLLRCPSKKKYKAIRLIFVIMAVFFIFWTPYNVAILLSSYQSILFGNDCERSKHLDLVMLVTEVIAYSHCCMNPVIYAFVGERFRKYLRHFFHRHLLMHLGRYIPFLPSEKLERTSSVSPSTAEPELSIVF
Method: (§1) Selectivity was measured using the calcium flux assay on a panel of human chemokine receptor bearing cell lines (CCR1, CCR2, CCR3, CCR4, CCR5, CCR6, CCR7, CCR8, CCR9, CCR10, CXCR1, CXCR2, CXCR2, CXCR4, CXCR6 and CXCCR1) using the same method as above

CXCCR1 = target: T2, CXCCR1 (Homo sapiens, UniProt P49238)
T2 sequence (P49238 1-355): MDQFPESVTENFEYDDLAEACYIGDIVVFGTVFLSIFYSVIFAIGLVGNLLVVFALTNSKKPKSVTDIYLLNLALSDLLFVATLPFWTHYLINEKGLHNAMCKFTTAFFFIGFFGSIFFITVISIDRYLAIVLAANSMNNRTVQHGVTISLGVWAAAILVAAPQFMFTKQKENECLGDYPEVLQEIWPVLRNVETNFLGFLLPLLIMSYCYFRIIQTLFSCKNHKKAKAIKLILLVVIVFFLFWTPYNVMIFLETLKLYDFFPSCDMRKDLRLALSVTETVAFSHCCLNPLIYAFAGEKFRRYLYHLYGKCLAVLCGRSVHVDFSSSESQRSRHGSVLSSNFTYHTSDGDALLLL
Method: as §1

CCR6 = target: T3, CCR6 (Homo sapiens, UniProt P51684)
T3 sequence (P51684 1-374): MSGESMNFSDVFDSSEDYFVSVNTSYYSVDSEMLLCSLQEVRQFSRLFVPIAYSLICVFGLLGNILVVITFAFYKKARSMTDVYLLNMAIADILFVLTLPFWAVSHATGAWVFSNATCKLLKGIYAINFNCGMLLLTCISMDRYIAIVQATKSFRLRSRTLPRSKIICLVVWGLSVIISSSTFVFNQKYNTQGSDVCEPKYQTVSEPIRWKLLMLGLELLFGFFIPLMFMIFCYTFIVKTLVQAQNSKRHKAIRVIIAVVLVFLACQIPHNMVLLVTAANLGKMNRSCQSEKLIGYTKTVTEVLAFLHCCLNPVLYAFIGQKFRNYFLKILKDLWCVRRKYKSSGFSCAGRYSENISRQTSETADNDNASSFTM
Method: as §1

CCR4 = target: T4, CCR4 (Homo sapiens, UniProt P51679)
T4 sequence (P51679 1-360): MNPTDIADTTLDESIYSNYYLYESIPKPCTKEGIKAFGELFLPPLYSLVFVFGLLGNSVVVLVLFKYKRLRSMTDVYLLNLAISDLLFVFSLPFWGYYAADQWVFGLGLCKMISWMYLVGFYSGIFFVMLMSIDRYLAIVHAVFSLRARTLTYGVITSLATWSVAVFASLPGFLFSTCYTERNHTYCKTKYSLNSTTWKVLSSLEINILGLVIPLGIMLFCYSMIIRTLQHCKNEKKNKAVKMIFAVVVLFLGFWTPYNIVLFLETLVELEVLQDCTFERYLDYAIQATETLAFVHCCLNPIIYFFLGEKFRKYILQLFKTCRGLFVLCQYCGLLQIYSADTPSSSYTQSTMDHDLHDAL
Method: as §1

CXCR6 = CXCR6 (Homo sapiens, UniProt O00574)
Sequence of CXCR6 (O00574 whole entry): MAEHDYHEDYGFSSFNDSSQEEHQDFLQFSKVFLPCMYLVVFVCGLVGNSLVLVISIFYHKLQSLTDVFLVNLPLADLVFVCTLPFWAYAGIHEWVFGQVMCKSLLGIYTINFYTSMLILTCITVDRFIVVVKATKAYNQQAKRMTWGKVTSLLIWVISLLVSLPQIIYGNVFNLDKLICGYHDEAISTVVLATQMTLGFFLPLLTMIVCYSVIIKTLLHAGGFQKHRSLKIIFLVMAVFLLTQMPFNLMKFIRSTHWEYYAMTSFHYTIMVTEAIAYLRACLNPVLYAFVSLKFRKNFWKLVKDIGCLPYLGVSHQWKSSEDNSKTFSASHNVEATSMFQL
Method: as §1

CXCR2 = target: T5, CXCR2 (Homo sapiens, UniProt P25025)
T5 sequence (P25025 1-360): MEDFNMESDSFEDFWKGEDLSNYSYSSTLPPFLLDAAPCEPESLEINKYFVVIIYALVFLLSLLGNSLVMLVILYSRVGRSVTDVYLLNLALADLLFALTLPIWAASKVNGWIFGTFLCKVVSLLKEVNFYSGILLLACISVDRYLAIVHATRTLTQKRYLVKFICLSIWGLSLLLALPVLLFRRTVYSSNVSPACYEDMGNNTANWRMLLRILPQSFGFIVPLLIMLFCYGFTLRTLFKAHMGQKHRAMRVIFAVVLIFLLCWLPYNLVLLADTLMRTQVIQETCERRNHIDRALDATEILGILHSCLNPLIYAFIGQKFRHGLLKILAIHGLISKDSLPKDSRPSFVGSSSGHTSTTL
Method: as §1

CCR2 = CCR2 (Homo sapiens, UniProt P41597)
Sequence of CCR2 (P41597 whole entry): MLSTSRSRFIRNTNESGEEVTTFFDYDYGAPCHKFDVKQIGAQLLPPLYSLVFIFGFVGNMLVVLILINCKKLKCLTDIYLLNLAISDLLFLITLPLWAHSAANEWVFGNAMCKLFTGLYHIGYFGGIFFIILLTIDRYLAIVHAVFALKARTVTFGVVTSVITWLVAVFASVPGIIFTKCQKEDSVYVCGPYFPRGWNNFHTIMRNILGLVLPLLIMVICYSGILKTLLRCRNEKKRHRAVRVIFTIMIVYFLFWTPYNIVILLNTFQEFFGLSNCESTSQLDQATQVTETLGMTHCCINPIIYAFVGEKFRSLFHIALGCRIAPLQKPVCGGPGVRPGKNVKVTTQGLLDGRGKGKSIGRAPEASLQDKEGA
Method: as §1

CCR8 = CCR8 (Homo sapiens, UniProt P51685)
Sequence of CCR8 (P51685 whole entry): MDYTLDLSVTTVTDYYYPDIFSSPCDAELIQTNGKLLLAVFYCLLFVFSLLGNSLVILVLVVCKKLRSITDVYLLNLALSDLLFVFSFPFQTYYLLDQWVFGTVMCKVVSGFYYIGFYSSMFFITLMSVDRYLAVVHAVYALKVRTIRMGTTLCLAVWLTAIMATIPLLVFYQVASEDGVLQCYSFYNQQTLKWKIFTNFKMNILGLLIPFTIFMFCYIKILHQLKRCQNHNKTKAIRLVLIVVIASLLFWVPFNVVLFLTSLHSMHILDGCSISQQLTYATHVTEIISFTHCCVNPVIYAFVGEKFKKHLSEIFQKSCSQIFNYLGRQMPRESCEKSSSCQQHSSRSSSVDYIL
Method: as §1

CCR5 = CCR5 (Homo sapiens, UniProt P51681)
Sequence of CCR5 (P51681 whole entry): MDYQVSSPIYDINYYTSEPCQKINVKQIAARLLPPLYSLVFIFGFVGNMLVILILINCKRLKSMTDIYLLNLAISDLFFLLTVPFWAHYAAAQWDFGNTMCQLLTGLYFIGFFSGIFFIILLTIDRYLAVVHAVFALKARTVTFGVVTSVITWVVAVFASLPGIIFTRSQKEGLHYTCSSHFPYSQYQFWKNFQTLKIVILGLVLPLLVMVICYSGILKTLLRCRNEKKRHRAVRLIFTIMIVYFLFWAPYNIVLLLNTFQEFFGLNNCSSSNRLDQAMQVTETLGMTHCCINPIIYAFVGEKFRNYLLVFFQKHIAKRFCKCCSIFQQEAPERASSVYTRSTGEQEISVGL
Method: as §1

CXCR1 = target: T6, CXCR1 (Homo sapiens, UniProt P25024)
T6 sequence (P25024 1-350): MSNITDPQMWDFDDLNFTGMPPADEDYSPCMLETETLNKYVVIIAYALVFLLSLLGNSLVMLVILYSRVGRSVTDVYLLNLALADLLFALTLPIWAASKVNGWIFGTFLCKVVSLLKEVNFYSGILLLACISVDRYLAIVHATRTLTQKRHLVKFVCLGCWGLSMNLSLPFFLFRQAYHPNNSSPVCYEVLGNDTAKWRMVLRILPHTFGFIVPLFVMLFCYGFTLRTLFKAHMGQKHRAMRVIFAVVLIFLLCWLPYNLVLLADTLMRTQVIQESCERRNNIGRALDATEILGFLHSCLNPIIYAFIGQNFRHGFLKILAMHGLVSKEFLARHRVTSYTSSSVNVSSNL
Method: as §1

| selectivity against CCR3 (CCR3) | selectivity against CXCCR1 (CXCCR1) | selectivity against CCR6 (CCR6) | selectivity against CCR4 (CCR4) | selectivity against CXCR6 (CXCR6) | selectivity against CXCR2 (CXCR2) | selectivity against CCR2 (CCR2) | selectivity against CCR8 (CCR8) | selectivity against CCR5 (CCR5) | selectivity against CXCR1 (CXCR1) | Structure (SMILES) |
| --- | --- | --- | --- | --- | --- | --- | --- | --- | --- | --- |
| highly selective | highly selective | highly selective | highly selective | highly selective | highly selective | highly selective | highly selective | highly selective | highly selective | N=C(N)NCCC[C@@H]1NC(=O)[C@H](Cc2c[nH]c3ccccc23)NC(=O)[C@H](Cc2ccc(O)cc2)NC(=O)[C@@H]2CCN2C(=O)[C@H]2CCCN2C(=O)CNC1=O [Example 15] (cyclo(YWRG[dP][Aze])) |
| highly selective | highly selective | highly selective | highly selective | highly selective | highly selective | highly selective | highly selective | highly selective | highly selective | C[C@@H]1NC(=O)[C@H](CCCNC(=N)N)NC(=O)[C@H](Cc2c[nH]c3ccccc23)NC(=O)[C@H](Cc2ccc(O)cc2)NC(=O)[C@@H]2CCN2C(=O)[C@H]2CCCN2C1=O [Example 16] (cyclo(YWRA[dP][Aze])) |
